{"source": "patent US20240238367A1", "about": "“COMPOUNDS FOR TREATING CONDITIONS RELATED TO PCSK9 ACTIVITY” (MERCK SHARP & DOHME LLC, priority 2021, published 2024)", "key": {"[1]": {"assay": "stability of amorphous salt forms, impurity levels (FIG. 5)", "format": "physicochemical", "conditions": "chloride salt made with HCl acidification step, risk of excess HCl"}, "human PCSK9": {"target": "human PCSK9 (Homo sapiens, UniProt Q8NBP7)", "sequence (Q8NBP7 153-692)": "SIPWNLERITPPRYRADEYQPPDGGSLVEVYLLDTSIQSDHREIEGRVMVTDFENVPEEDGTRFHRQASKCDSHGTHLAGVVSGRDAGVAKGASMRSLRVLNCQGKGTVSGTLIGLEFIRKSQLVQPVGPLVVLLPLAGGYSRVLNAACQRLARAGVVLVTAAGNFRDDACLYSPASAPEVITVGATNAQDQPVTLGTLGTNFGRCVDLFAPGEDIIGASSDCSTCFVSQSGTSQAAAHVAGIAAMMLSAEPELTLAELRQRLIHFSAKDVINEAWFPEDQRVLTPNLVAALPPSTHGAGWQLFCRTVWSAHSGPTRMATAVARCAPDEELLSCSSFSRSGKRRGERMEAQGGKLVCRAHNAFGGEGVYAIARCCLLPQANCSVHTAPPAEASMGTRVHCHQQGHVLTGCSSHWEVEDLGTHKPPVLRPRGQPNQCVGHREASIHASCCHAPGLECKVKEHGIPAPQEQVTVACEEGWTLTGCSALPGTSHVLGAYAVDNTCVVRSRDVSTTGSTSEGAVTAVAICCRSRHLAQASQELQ"}, "[2]": {"conditions": "non-human primates; co-administration with permeation enhancer (Labrasol, sodium caprate)"}, "[3]": {"conditions": "once daily for 14 days", "description": "(§3) Standard takeaway meals were provided to participants to consume no less than 30 minutes after receiving their once daily dose. In addition to standard safety monitoring, including vital signs, ECG and laboratory safety tests, plasma lipids (total cholesterol, LDL-C, HDL-C and TG) were measured. LDL-C was monitored as part of the safety labs."}, "[4]": {"conditions": "nonhuman primates; subcutaneous dosing plus oral arms; up to/including highest doses administered"}, "[5]": {"conditions": "rats; co-administration with permeation enhancer (Labrasol, sodium caprate)"}, "LDL-C [6]": {"tested_on": "LDL-C", "assay": "multiple dose study: LDL-C reduction in participants on statin background therapy", "description": "as §3\nBlood LDL-cholesterol levels were measured using standard clinical laboratory testing procedures predose and on day 3, 7, 14, 15 and 21 after dosing."}, "[7]": {"conditions": "rats; subcutaneous dosing plus oral arms; up to/including highest doses administered"}, "LDL-C [8]": {"tested_on": "LDL-C", "conditions": "hard gelatin capsule, 5 mg plus 180 mg sodium caprate, participants taking statins"}, "[9]": {"assay": "single dose study: safety and tolerability", "from_the_text": "(§1) Evaluation of pharmacokinetics, pharmacodynamics (reduction of free PCSK9 from baseline) and safety and tolerability of single doses of the compound of formula (I) were studied in normal healthy male volunteers aged 18-50. […] Additionally, this trial examined the effect of permeation enhancer dose on PK, the effect of food on PK, and the effect of various capsule formulations on PK. The pharmacodynamic endpoint measured in this study was target engagement (% change in free PCSK9).\n(§2) The capsules were over-encapsulated with enteric capsules (HPMC Vcaps® Enteric, Capsugel®, Lonza)."}, "[10]": {"from_the_text": "as §1, §2"}, "free PCSK9": {"target": "T1, free PCSK9 (Homo sapiens, UniProt Q8NBP7)", "T1 construct": "reduction in plasma levels of free PCSK9 protein; from tissue; host or cells: plasma of healthy human volunteers (in vivo, endogenous)", "T1 sequence (Q8NBP7 153-692)": "as above", "T1 sequence (Q8NBP7 31-152 partner limits assumed)": "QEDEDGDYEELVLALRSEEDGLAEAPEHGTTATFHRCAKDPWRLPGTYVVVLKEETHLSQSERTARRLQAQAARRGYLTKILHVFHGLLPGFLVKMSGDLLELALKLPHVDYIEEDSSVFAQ", "assay": "single dose study: reduction of free plasma PCSK9 from baseline (target engagement)", "format": "in vivo"}, "LDL-C [11]": {"tested_on": "LDL-C", "conditions": "phase 3 lipid trials, N Engl J Med 2020; cited from earlier work"}, "LDL-C [12]": {"tested_on": "LDL-C", "conditions": "ODYSSEY, N Engl J Med 2018; cited from earlier work"}, "LDL-C [13]": {"tested_on": "LDL-C", "conditions": "FOURIER, N Engl J Med 2017; cited from earlier work"}, "[14]": {"conditions": "single oral doses 10 to 300 mg, healthy male volunteers"}, "[15]": {"conditions": "Panel A 200 mg no PE (permeation enhancer)"}, "[16]": {"conditions": "Panel B 120 mg with 720 mg Labrasol"}, "[17]": {"conditions": "Panel C 40 mg with 720 mg Na Caprate"}, "[18]": {"conditions": "Panel C 100 mg with 1800 mg Na caprate"}}, "note": "Read-outs that look alike come from different tables or passages of the source."}
{"molecule": "COc1ccc(C[C@@H]2NC(=O)[C@H]([C@@H](C)O)NC(=O)[C@@H]3[C@@H]4CCN3C(=O)[C@@H]3Cc5cn(c6ccc(F)cc56)CCCCCCN(Cc5ccc(cc5)CCNC(=O)[C@]5(C)CCCN5C2=O)C(=O)CCC(=O)N[C@@H](C)C(=O)N[C@H](CNC(=O)CCCCC[N+](C)(C)C)C(=O)N[C@@H](Cc2cccc(c2)CNC(=O)CO4)C(=O)N3)cc1.[Cl-]", "note": "[Compound 1]", "values": [{"measurement": "stability / impurity levels of amorphous salt", "setting": "[1]", "value": "higher impurity levels"}, {"measurement": "binding affinity against human PCSK9", "setting": "human PCSK9", "value": "picomolar"}, {"measurement": "GI absorption", "setting": "[2]", "value": "improved"}, {"measurement": "PK of 10 mg plus 180 mg sodium caprate versus 10 mg plus 360 mg sodium caprate", "setting": "[3]", "value": "similar"}, {"measurement": "adverse effects in GLP toxicity study", "setting": "[4]", "value": "no adverse effects were observed"}, {"measurement": "GI absorption", "setting": "[5]", "value": "improved"}, {"measurement": "mean reduction of LDL-C", "setting": "LDL-C [6]; 10 mg plus 180 mg sodium caprate, once daily for 14 days, statin background", "value": "approximately 60%"}, {"measurement": "mean reduction of LDL-C", "setting": "LDL-C [6]; 10 mg plus 360 mg sodium caprate, once daily for 14 days, statin background", "value": "approximately 64%"}, {"measurement": "mean reduction of plasma LDL-C", "setting": "LDL-C [6]; 20 mg plus 360 mg sodium caprate, once daily for 14 days, statin background", "value": "approximately 62%"}, {"measurement": "adverse effects in GLP toxicity study", "setting": "[7]", "value": "no adverse effects were observed"}, {"measurement": "% LDL-C reduction from baseline", "setting": "LDL-C [8]", "value": "< 50", "unit": "%"}, {"measurement": "adverse events related to Compound 1 reported by the Investigator", "setting": "[9]; [14]", "value": "abdominal discomfort, diarrhea, dyspepsia, headache, and maculopapular rash"}, {"measurement": "deaths or severe adverse events (SAEs)", "setting": "[9]; [14]", "value": "no death or severe adverse events"}, {"measurement": "tolerability", "setting": "[9]; single oral doses up to 300 mg, healthy male volunteers", "value": "well tolerated"}, {"measurement": "severity of treatment-related AEs", "setting": "[9]; single oral doses, exception of one participant with severe back pain, not dose-related", "value": "mild/moderate"}, {"measurement": "effect of food on plasma exposure", "setting": "[10]; food consumed 30 minutes after the dose", "value": "negligible effect"}, {"measurement": "effect of food on plasma exposure", "setting": "[10]; food consumed 30 minutes before dosing, compared to fasted", "value": "lower plasma exposure"}, {"measurement": "PK in the presence of Labrasol versus sodium caprate", "setting": "[10]; single dose", "value": "similar"}, {"measurement": "effect of permeation enhancers on absorption (Cmax and AUC0-24)", "setting": "[10]; single dose, with vs without permeation enhancer", "value": "improve absorption"}, {"measurement": "plasma exposure versus dose", "setting": "[10]; single oral doses 10 to 300 mg", "value": "dose dependent increase"}, {"measurement": "GM Maximum Percent Target Reduction From Baseline of Free PCSK9", "setting": "free PCSK9; Panel A 10 mg single dose", "value": 93.32, "unit": "%"}, {"measurement": "Posterior Probability of True GM Free PCSK9 Maximum Percent Reduction ≥80%", "setting": "free PCSK9; Panel A 10 mg single dose", "value": ">0.99"}, {"measurement": "GM Maximum Percent Target Reduction From Baseline of Free PCSK9", "setting": "free PCSK9; [15]", "value": 96.83, "unit": "%"}, {"measurement": "Posterior Probability of True GM Free PCSK9 Maximum Percent Reduction ≥80%", "setting": "free PCSK9; [15]", "value": ">0.99"}, {"measurement": "GM Maximum Percent Target Reduction From Baseline of Free PCSK9", "setting": "free PCSK9; Panel A 200 mg single dose", "value": 99.46, "unit": "%"}, {"measurement": "Posterior Probability of True GM Free PCSK9 Maximum Percent Reduction ≥80%", "setting": "free PCSK9; Panel A 200 mg single dose", "value": ">0.99"}, {"measurement": "GM Maximum Percent Target Reduction From Baseline of Free PCSK9", "setting": "free PCSK9; Panel B 35 mg single dose", "value": 98.72, "unit": "%"}, {"measurement": "Posterior Probability of True GM Free PCSK9 Maximum Percent Reduction ≥80%", "setting": "free PCSK9; Panel B 35 mg single dose", "value": ">0.99"}, {"measurement": "GM Maximum Percent Target Reduction From Baseline of Free PCSK9", "setting": "free PCSK9; [16]", "value": 99.43, "unit": "%"}, {"measurement": "Posterior Probability of True GM Free PCSK9 Maximum Percent Reduction ≥80%", "setting": "free PCSK9; [16]", "value": ">0.99"}, {"measurement": "GM Maximum Percent Target Reduction From Baseline of Free PCSK9", "setting": "free PCSK9; Panel B 300 mg single dose", "value": 99.68, "unit": "%"}, {"measurement": "Posterior Probability of True GM Free PCSK9 Maximum Percent Reduction ≥80%", "setting": "free PCSK9; Panel B 300 mg single dose", "value": ">0.99"}, {"measurement": "GM Maximum Percent Target Reduction From Baseline of Free PCSK9", "setting": "free PCSK9; [17]", "value": 97.94, "unit": "%"}, {"measurement": "Posterior Probability of True GM Free PCSK9 Maximum Percent Reduction ≥80%", "setting": "free PCSK9; [17]", "value": ">0.99"}, {"measurement": "GM Maximum Percent Target Reduction From Baseline of Free PCSK9", "setting": "free PCSK9; Panel C 100 mg single dose", "value": 99.36, "unit": "%"}, {"measurement": "Posterior Probability of True GM Free PCSK9 Maximum Percent Reduction ≥80%", "setting": "free PCSK9; Panel C 100 mg single dose", "value": ">0.99"}, {"measurement": "GM Maximum Percent Target Reduction From Baseline of Free PCSK9", "setting": "free PCSK9; [18]", "value": 99.18, "unit": "%"}, {"measurement": "Posterior Probability of True GM Free PCSK9 Maximum Percent Reduction ≥80%", "setting": "free PCSK9; [18]", "value": ">0.99"}]}
{"molecule": "COc1ccc(C[C@@H]2NC(=O)[C@H]([C@@H](C)O)NC(=O)[C@@H]3[C@@H]4CCN3C(=O)[C@@H]3Cc5cn(c6ccc(F)cc56)CCCCCCN(Cc5ccc(cc5)CCNC(=O)[C@]5(C)CCCN5C2=O)C(=O)CCC(=O)N[C@@H](C)C(=O)N[C@H](CNC(=O)CCCCC[N+](C)(C)C)C(=O)N[C@@H](Cc2cccc(c2)CNC(=O)CO4)C(=O)N3)cc1", "note": "[compound of formula (I)]", "values": [{"measurement": "lowering of LDL-cholesterol in the blood from baseline", "setting": "LDL-C [6]; 14 days of once daily oral dosing, background of moderate-to-high intensity statin therapy", "value": "approximately 65%"}, {"measurement": "tolerability", "setting": "[9]; single and multiple oral doses in healthy volunteers", "value": "generally well tolerated"}, {"measurement": "mean maximum reduction of free plasma PCSK9 levels from baseline", "setting": "free PCSK9; single doses, all dose levels studied", "value": "more than 90%"}]}
{"molecule": "Inclisiran", "values": [{"measurement": "reduction in LDL-C", "setting": "LDL-C [11]", "value": "49-52%"}]}
{"molecule": "COc1ccc(C[C@@H]2NC(=O)[C@H]([C@@H](C)O)NC(=O)[C@@H]3[C@@H]4CCN3C(=O)[C@@H]3Cc5cn(c6ccc(F)cc56)CCCCCCN(Cc5ccc(cc5)CCNC(=O)[C@]5(C)CCCN5C2=O)C(=O)CCC(=O)N[C@@H](C)C(=O)N[C@H](CNC(=O)CCCCC[N+](C)(C)C)C(=O)N[C@@H](Cc2cccc(c2)CNC(=O)CO4)C(=O)N3)cc1", "note": "[Compound 3]", "values": [{"measurement": "stability / impurity levels of amorphous salt", "setting": "[1]", "value": "demonstrate stability"}]}
{"molecule": "Praluent: anti-PCSK9 monoclonal antibody", "values": [{"measurement": "reduction in LDL-C", "setting": "LDL-C [12]", "value": 59, "unit": "%"}]}
{"molecule": "Repatha: anti-PCSK9 monoclonal antibody (antibody, chains of the INN, looked up, V domains shown) VH: EVQLVQSGAEVKKPGASVKVSCKASGYTLTSYGISWVRQAPGQGLEWMGWVSFYNGNTNYAQKLQGRGTMTTDPSTSTAYMELRSLRSDDTAVYYCARGYGMDVWGQGTTVTVSS VL: ESALTQPASVSGSPGQSITISCTGTSSDVGGYNSVSWYQQHPGKAPKLMIYEVSNRPSGVSNRFSGSKSGNTASLTISGLQAEDEADYYCNSYTSTSMVFGGGTKLTVL", "values": [{"measurement": "reduction in LDL-C", "setting": "LDL-C [13]", "value": 59, "unit": "%"}]}
